Results from patent publication US4668680A, “5-amino-6,8-difluoroquinolones as antibacterial agents” (Warner-Lambert Company, priority 1985, dated 1987).
Values after ≈ are worked out from the molar mass of the structure shown. Where two headings read alike, the source gives them in different places.

Assays:
Assay in all cases: in vitro antibacterial activity, microtitration dilution method
Format in all cases: cell-based
[1] = tested on: Enterobacter cloacae MA 2646; conditions: MA2646, read-out: Minimal Inhibitory Concentration MIC
[2] = tested on: Streptococcus faecalis MGH-2; conditions: Enterococcus faecalis
Description: (§1) The compounds of the invention display antibacterial activity as shown in the following table when tested by the microtitration dilution method as described in Heifetz, et al, Antimicr. Agents & Chemoth., 6, 124 (1974), which is incorporated herein by reference. […]

[3] = tested on: Pseudomonas aeruginosa UI-18
Description: as §1

[4] = tested on: Staphylococcus aureus UC-76
Description: as §1

[5] = tested on: Klebsiella pneumoniae MGH-2
Description: as §1

[6] = tested on: Staphylococcus aureus H 228
Description: as §1

[7] = tested on: Streptococcus pneumonia SV-1; conditions: Streptococcus pneumoniae
Description: as §1

Escherichia coli Vogel = conditions: read-out: Minimal Inhibitory Concentration MIC
Description: as §1

[8] = tested on: Streptococcus pyogenes C-203
Description: as §1

Proteus rettgeri M 1771 = conditions: Providencia rettgeri
Description: as §1

[9] = MGH2, Streptococcus faecalis MGH-2, read-out: Minimal Inhibitory Concentration MIC
[10] = UI18, Pseudomonas aeruginosa UI-18, read-out: Minimal Inhibitory Concentration MIC
[11] = UC76, Staphylococcus aureus UC-76, read-out: Minimal Inhibitory Concentration MIC
[12] = MGH2, Klebsiella pneumoniae MGH-2, read-out: Minimal Inhibitory Concentration MIC
[13] = H228, Staphylococcus aureus H 228, read-out: Minimal Inhibitory Concentration MIC
[14] = SV1, Streptococcus pneumonia SV-1, read-out: Minimal Inhibitory Concentration MIC
[15] = C203, Streptococcus pyogenes C-203, read-out: Minimal Inhibitory Concentration MIC
[16] = M1771, Proteus rettgeri M 1771, read-out: Minimal Inhibitory Concentration MIC

| Structure (SMILES) | MIC [1] | MIC [2, 9] | MIC [3, 10] | MIC [4, 11] | MIC [5, 12] | MIC [6, 13] | MIC [7, 14] | MIC (Escherichia coli Vogel) | MIC [8, 15] | MIC (Proteus rettgeri M 1771; [16]) | MIC ([2]; MGH2, read-out: Minimal Inhibitory Concentration MIC) | MIC ([3]; Pseudomonas aeruginosa, UI18, read-out: Minimal Inhibitory Concentration MIC) | MIC ([4]; Staphylococcus aureus, UC76, read-out: Minimal Inhibitory Concentration MIC) | MIC ([5]; Klebsiella pneumoniae, MGH2, read-out: Minimal Inhibitory Concentration MIC) | MIC ([6]; Staphylococcus aureus, H228, read-out: Minimal Inhibitory Concentration MIC) | MIC ([7]; SV1, read-out: Minimal Inhibitory Concentration MIC) | MIC ([8]; Streptococcus pyogenes, C203, read-out: Minimal Inhibitory Concentration MIC) | MIC (Proteus rettgeri M 1771; M1771, read-out: Minimal Inhibitory Concentration MIC) |
| --- | --- | --- | --- | --- | --- | --- | --- | --- | --- | --- | --- | --- | --- | --- | --- | --- | --- | --- |
| CN1CCN(c2c(F)c(N)c3c(=O)c(C(=O)O)cn(C4CC4)c3c2F)CC1 [Ex. 2, 5-Amino-1-cyclopropyl-6,8-difluoro-1,4-dihydro-7-(4-methyl-1-piperazinyl)-4-oxo-3-quinolinecarboxylic acid] | 0.013 mg/L (≈ 0.0344 µM) | 0.1 mg/L (≈ 0.264 µM) | 0.1 mg/L (≈ 0.264 µM) | 0.025 mg/L (≈ 0.0661 µM) | 0.013 mg/L (≈ 0.0344 µM) | 0.05 mg/L (≈ 0.132 µM) | 0.2 mg/L (≈ 0.529 µM) | 0.013 mg/L (≈ 0.0344 µM) | 0.4 mg/L (≈ 1.06 µM) | 0.05 mg/L (≈ 0.132 µM) |  |  |  |  |  |  |  |  |
| Nc1c(F)c(N2CCNCC2)c(F)c2c1c(=O)c(C(=O)O)cn2C1CC1 [Ex. 1, 5-amino-1-cyclopropyl-6,8-difluoro-1,4-dihydro-4-oxo-7-(1-piperazinyl)-3-quinolinecarboxylic acid] | 0.013 mg/L (≈ 0.0357 µM) | 0.05 mg/L (≈ 0.137 µM) | 0.025 mg/L (≈ 0.0686 µM) | 0.013 mg/L (≈ 0.0357 µM) | 0.025 mg/L (≈ 0.0686 µM) | 0.05 mg/L (≈ 0.137 µM) | 0.05 mg/L (≈ 0.137 µM) | 0.013 mg/L (≈ 0.0357 µM) | 0.2 mg/L (≈ 0.549 µM) | 0.05 mg/L (≈ 0.137 µM) |  |  |  |  |  |  |  |  |
| O=C(O)c1cn(C2CC2)c2cc(N3CCNCC3)c(F)cc2c1=O [Ciprofloxacin, 1-cyclopropyl-6-fluoro-1,4-dihydro-4-oxo-7-piperazinyl-3-quinoline-carboxylic acid, reference compound] |  |  |  |  |  |  |  | 0.05 mg/L (≈ 0.151 µM) |  |  | 0.8 mg/L (≈ 2.41 µM) | 0.4 mg/L (≈ 1.21 µM) | 0.2 mg/L (≈ 0.604 µM) | 0.1 mg/L (≈ 0.302 µM) | 3.1 mg/L (≈ 9.36 µM) | 1.6 mg/L (≈ 4.83 µM) | 0.8 mg/L (≈ 2.41 µM) | 0.1 mg/L (≈ 0.302 µM) |
